Measurements from patent US9714254B2, “Anilino podophyllin derivative having antitumor activity, method for preparation thereof, and use thereof” (HUBEI UNIVERSITY OF TECHNOLOGY, priority 2013, dated 2017).
Read-outs that look alike come from different tables or passages of the source.

Legend:
BGC823 cell line [1] = experiment: MTT test of inhibiting tumor cell activity, BGC823; conditions: read-out: Cytotoxic activity (IC50, μM) BGC823
Protocol: (§1) 3, cell lines: Hela, BGC823, A549 cell line and normal human hepatocytes which are available from Wu Han boster Co., Ltd.;
(§2) Hela, BGC823, A549 cell line and normal human hepatocytes in logarithmic growth phase are subjected to 1000 rpm centrifugation for 5 min, supernatant is then discarded, moderate medium is suspended, the cell concentration is adjusted to 3.5×10^4/well, the cells were seeded in 96-wells culture plate, and following experimental groups are set:
(§3) a negative control group; 22 test groups with same concentration (ie: groups of Compound (1) to Compound (22)); 2 control groups: groups of podophyllotoxin, 4′-demethylepipodophyllotoxin and etoposide.
(§4) Taking RPMI1640 containing 10% of calf serum as nutrient solution, 0.10 mL of cells per well is incubated under conditions of 37 V, 5% CO2 and saturated humidity for 24 h to nearly be covered, then the nutrient solution is discarded. […] 100 μl of DMSO is added to each well, then vibrated at 37° C. by shaker table for 30 min, then measuring absorbance (OD) at 492 nm, calculating MTT ratio=OD value of drug group/OD value of the negative control group.

Hela cell line [2] = experiment: MTT test of inhibiting tumor cell activity, Hela; conditions: read-out: Cytotoxic activity (IC50, μM) Hela
Protocol: as §1, §2, §3, §4

A549 cell line [3] = experiment: MTT test of inhibiting tumor cell activity, A549; conditions: read-out: Cytotoxic activity (IC50, μM) A549
Protocol: as §1, §2, §3, §4

A549 cell line [4] = test system: A549 cell line
Protocol: as §1, §2, §3, §4

Hela cell line [5] = test system: Hela cell line
Protocol: as §1, §2, §3, §4

BGC823 cell line [6] = test system: BGC823 cell line
Protocol: as §1, §2, §3, §4

[7] = BGC823 cells, MTT, 48 h cultivation
[8] = Hela cells, MTT, 48 h cultivation
[9] = A549 cells, MTT, 48 h cultivation

| Compound | IC50 (BGC823 cell line [1]; [7]) [µM] | IC50 (Hela cell line [2]; [8]) [µM] | IC50 (A549 cell line [3]; [9]) [µM] | also measured |
| --- | --- | --- | --- | --- |
| COc1ccc(Cl)cc1NC1c2cc3c(cc2C(c2cc(OC)c(OC)c(OC)c2)C2C(=O)OCC12)OCO3 (stereo not drawn) [Compound 9, 4-N-(4-chloro-2-aminoanisole)-4-deoxy-podophyllotoxin] | 1.24 ± 0.06 | 8.07 ± 1.81 | 1.71 ± 0.26 | – |
| COc1cc([C@@H]2c3cc4c(cc3[C@@H](O[C@@H]3O[C@@H]5CO[C@@H](C)O[C@H]5[C@H](O)[C@H]3O)[C@H]3COC(=O)[C@H]23)OCO4)cc(OC)c1O [VP-16, etoposide, reference compound] | 22.3 ± 2.97 | 13.2 ± 1.65 | 31.1 ± 1.72 | – |
| COc1cc(C2c3cc4c(cc3C(Nc3cc(Cl)c(O)c(Cl)c3)C3COC(=O)C23)OCO4)cc(OC)c1OC (stereo not drawn) [Compound 13, 4-N-(2,6-dichloro-4-aminophenol)-4-deoxy-podophyllotoxin] | 1.58 ± 0.16 | 17.6 ± 2.39 | 9.66 ± 0.35 | – |
| COc1ccc(NC2c3cc4c(cc3C(c3cc(OC)c(O)c(OC)c3)C3C(=O)OCC23)OCO4)cc1F (stereo not drawn) [Compound 4, 4-N-(3-fluoro-4-methoxyaniline)-4-deoxy-4′-demethylepipodophyllotoxin] | 0.4 ± 0.17 | 1.97 ± 0.16 | 3.04 ± 0.23 | – |
| COc1cc(C2c3cc4c(cc3C(Nc3ccccc3Sc3ccccc3N)C3COC(=O)C23)OCO4)cc(OC)c1OC (stereo not drawn) [Compound 19, 4-N-(2 2′-diaminodiphenylsulfide)-4-deoxy-podophyllotoxin] | 6.46 ± 0.33 | 2.14 ± 0.21 | 23.2 ± 0.72 | – |
| CCc1ccc([N+](=O)[O-])cc1NC1c2cc3c(cc2C(c2cc(OC)c(OC)c(OC)c2)C2C(=O)OCC12)OCO3 (stereo not drawn) [Compound 17, 4-N-(2-ethyl-5-nitroaniline)-4-deoxy-podophyllotoxin] | 4.24 ± 0.79 | 6.01 ± 0.71 | 1.4 ± 0.28 | – |
| COc1cc(C2c3cc4c(cc3C(Nc3ccc(Cc5ccc(N)cc5)cc3)C3COC(=O)C23)OCO4)cc(OC)c1O (stereo not drawn) [Compound 6, 4-N-(4,4′-diaminodiphenylmethane)-4-deoxy-4′-demethylepipodophyllotoxin] | 3.52 ± 0.43 | 0.56 ± 0.17 | 2.2 ± 0.25 | – |
| COc1cc(C2c3cc4c(cc3C(Nc3cccc(S(=O)(=O)N(C)C)c3)C3COC(=O)C23)OCO4)cc(OC)c1O (stereo not drawn) [Compound 16, 4-N—(N,N-dimethylaminometanil)-4-deoxy-4′-demethylepipodophyllotoxin] | 1.52 ± 0.39 | 1.06 ± 0.57 | 2.08 ± 0.26 | – |
| COc1ccc(Cl)cc1NC1c2cc3c(cc2C(c2cc(OC)c(O)c(OC)c2)C2C(=O)OCC12)OCO3 (stereo not drawn) [Compound 10, 4-N-(4-chloro-2-aminoanisole)-4-deoxy-4′-demethylepipodophyllotoxin] | 1.61 ± 0.37 | 1.35 ± 0.18 | 3.72 ± 0.41 | – |
| COc1ccccc1NC1c2cc3c(cc2C(c2cc(OC)c(O)c(OC)c2)C2C(=O)OCC12)OCO3 (stereo not drawn) [Compound 8, 4-N-(o-aminoanisole)-4-deoxy-4′-demethylepipodophyllotoxin] | 5.63 ± 1.2 | 1.72 ± 0.3 | 15.3 ± 0.45 | – |
| COc1cc(C2c3cc4c(cc3C(Nc3cc(Cl)c(O)c(Cl)c3)C3COC(=O)C23)OCO4)cc(OC)c1O (stereo not drawn) [Compound 14, 4-N-(2,6-dichloro-4-aminophenol)-4-deoxy-4′-demethylepipodophyllotoxin] | 13.8 ± 1.42 | 14.7 ± 0.42 | 9.41 ± 0.59 | – |
| COc1cc(C2c3cc4c(cc3C(Nc3ccccc3C#N)C3COC(=O)C23)OCO4)cc(OC)c1O (stereo not drawn) [Compound 12, 4-N-(o-aminobenzonitrile)-4-deoxy-4′-demethylepipodophyllotoxin] | 7.91 ± 0.59 | 1.92 ± 1.21 | 11.6 ± 1.63 | – |
| COc1ccc(NC2c3cc4c(cc3C(c3cc(OC)c(OC)c(OC)c3)C3C(=O)OCC23)OCO4)cc1F (stereo not drawn) [Compound 3, 4-N-(3-fluoro-4-methoxyaniline)-4-deoxy-podophyllotoxin] | 3.16 ± 1.11 | 2.57 ± 0.87 | 1.97 ± 0.32 | – |
| COc1ccccc1NC1c2cc3c(cc2C(c2cc(OC)c(OC)c(OC)c2)C2C(=O)OCC12)OCO3 (stereo not drawn) [Compound 7, 4-N-(o-aminoanisole)-4-deoxy-podophyllotoxin] | 6.26 ± 0.36 | 13.4 ± 3.31 | 3.41 ± 0.1 | – |
| COc1cc(C2c3cc4c(cc3C(Nc3ccc(Cc5ccc(N)cc5)cc3)C3COC(=O)C23)OCO4)cc(OC)c1OC (stereo not drawn) [Compound 5, 4-N-(4,4′-diaminodiphenylmethane)-4-deoxy-podophyllotoxin] | 17.2 ± 0.34 | 7.07 ± 1.63 | 2.32 ± 0.06 | – |
| COc1cc(C2c3cc4c(cc3C(Nc3ccccc3C#N)C3COC(=O)C23)OCO4)cc(OC)c1OC (stereo not drawn) [Compound 11, 4-N-(o-aminobenzonitrile)-4-deoxy-podophyllotoxin] | > 100 | 16.9 ± 1.48 | 1.02 ± 0.07 | – |
| COc1cc(C2c3cc4c(cc3C(Nc3ccc(Cl)c(C)c3)C3COC(=O)C23)OCO4)cc(OC)c1OC (stereo not drawn) [Compound 1, 4-N-(4-chloro-3-methylaniline)-4-deoxy-podophyllotoxin] | – | – | – | IC50 (A549 cell line [4]): 1750 ± 830 nM; IC50 (Hela cell line [5]): 1260 ± 370 nM; IC50 (BGC823 cell line [6]): 620 ± 130 nM |
| COc1cc(C2c3cc4c(cc3C(Nc3ccccc3C(F)(F)F)C3COC(=O)C23)OCO4)cc(OC)c1O (stereo not drawn) [Compound 22, 4-N-(2-aminobenzotrifluoride)-4-deoxy-4′-demethylepipodophyllotoxin] | 6.01 ± 0.12 | 5.89 ± 0.48 | 9.72 ± 0.98 | – |
| COc1cc(C2c3cc4c(cc3C(Nc3ccccc3C(F)(F)F)C3COC(=O)C23)OCO4)cc(OC)c1OC (stereo not drawn) [Compound 21, 4-N-(2-aminobenzotrifluoride)-4-deoxy-podophyllotoxin] | 23.2 ± 0.76 | 2.45 ± 3.04 | 2.11 ± 0.05 | – |
| COc1cc(C2c3cc4c(cc3C(O)C3COC(=O)C23)OCO4)cc(OC)c1O (stereo not drawn) [4′-demethylepipodophyllotoxin, reference compound] | 63 | 49 | 52 | – |
| COc1cc(C2c3cc4c(cc3C(Nc3ccccc3Sc3ccccc3N)C3COC(=O)C23)OCO4)cc(OC)c1O (stereo not drawn) [Compound 20, 4-N-(2 2′-diaminodiphenylsulfide)-4-deoxy-4′-demethylepipodophyllotoxin] | 2.17 ± 0.23 | 16.3 ± 0.39 | 1.42 ± 0.12 | – |
| 4-N—(N,N-dimethylamino metanil)-4-deoxy-podophyllotoxin [Compound 15] | 2.59 ± 0.21 | 1.33 ± 0.2 | > 100 | – |
| COc1cc([C@@H]2c3cc4c(cc3[C@H](O)[C@H]3COC(=O)[C@H]23)OCO4)cc(OC)c1OC [podophyllotoxin, reference compound] | – | – | – | IC50 (BGC823 cell line [1]; Homo sapiens, BGC-823, 48 h): 75 µM; IC50 (Hela cell line [2]; Homo sapiens, HeLa, 48 h): 55 µM; IC50 (A549 cell line [3]; Homo sapiens, A549, 48 h): 67 µM |
